Literature values as cited in patent publication US8137397B2, “Medical devices” (Boston Scientific Scimed, Inc., priority 2004, dated 2012).

Conditions: at about room temperature, i.e., about 25° C.; for solubility: in water

| SMILES | solubility in water (in words) | solubility |
| --- | --- | --- |
| O=C(CO)[C@H](O)[C@@H](O)[C@H](O)CO [Sorbose, sorbose] | freely soluble in water |  |
| OC[C@H]1O[C@@](CO)(O[C@H]2O[C@H](CO)[C@@H](O)[C@H](O)[C@H]2O)[C@@H](O)[C@@H]1O [Sucrose, sucrose] |  | about 2 gram/mL of water |
| [Cl-].[K+] [Potassium chloride, potassium chloride] |  | about 0.36 gram/mL of water |
| OC[C@@H](O)[C@@H](O)[C@H](O)[C@H](O)CO [Mannitol, mannitol] |  | about 0.18 gram/mL of water |
